In article PMC6071731 (2018) one finds Kb data, which are given here for four compounds.

Assay [1] has as its system 22AG (DNA, G4) AGGGTTAGGGTTAGGGTTAGGG
Nature of the assay: fluorimetric titration. Conditions: 95 mM K+; potassium phosphate buffer, 5% DMSO, pH 7.0; ligand 20 μM; DNA concentration in oligonucleotide.

Assay [2] has the same test system. The assay can be described thus: photometric titration. Conditions: 95 mM K+; potassium phosphate buffer, 5% DMSO, pH 7.0; ligand 20 μM; DNA concentration in oligonucleotide.

`C(#Cc1cc2ccccc2c2ccccc12)c1ccc2c[n+]3ccccc3cc2c1` had a Kb in assay [1] of 30000 M⁻¹.

In turn, `CN(C)c1ccc(C#Cc2ccc3c[n+]4ccccc4cc3c2)cc1` returned a Kb in assay [2] of 16000 M⁻¹.

On to `COc1ccc(C#Cc2ccc3c[n+]4ccccc4cc3c2)cc1`, for which the Kb in assay [2] turned out to be 26000 M⁻¹.

As to `C(#Cc1ccc2c[n+]3ccccc3cc2c1)c1ccccc1`, the Kb in assay [1] was 220000 M⁻¹.
